Experimental data reported in patent publication US9409978B2, “Modulation of midbody derivatives” (University of Massachusetts, priority 2011, dated 2016).
Entries after “also recorded” stand apart in the source; their conditions may differ.

What was measured:
HeLa cells = test: Lysosome inhibition, MBd quantification in HeLa cells; format: cell-based; conditions: lysosomal inhibition 22 hours
Source text: (§1) Each dividing cell was considered one cell.

hESCs (H1, H9) = test: Lysosome inhibition, MBd quantification in hESCs; conditions: chloroquine treatment
Source text: Quantification was based on the markers that: 1) labeled both mitotic MBs and MBds (MKLP1, mgcRACGAP, or Cep55); 2) labeled MBs differently than MBds (α-tubulin or Aurora B); 3) defined cell boundaries (α-tubulin or ZO-1). Because Cep55, MKLP1, and mgcRACGAP also label centrioles and spindle midzones, cells were co-stained with centrosome antibody (e.g. 5051), and a size threshold for MB/MBds (1 μm) was introduced to exclude non-MBd structures. Structures with MB-specific or non-MB/MBd labeling were excluded from MBd counts. Cell counts: For hESCs, 5-11 colonies were imaged from triplicates in each experiment. For other cell types, random fields were imaged until n>500 cells. Each dividing cell was considered one cell.
Cells at 70% confluency were incubated with chloroquine (200 μM/PBS; Sigma), E64d+ pepstatin A (E64d/PepA) (10 μg ml^−1/DMSO each; Sigma) (Klionsky et al., 2008, Autophagy, 4:151-175; Komatsu et al., 2007, Cell, 131:1149-63) or solvents alone (controls) for 22 hours before fixation. Lysosome inhibition was confirmed and visualized after 12-hour DQ-Red BSA (10 μg ml^−1; Invitrogen) incubation.

MCF-7 cancer cells = test: Lysosome inhibition, MBd quantification in MCF-7 cells; format: cell-based; conditions: lysosomal inhibition 22 hours
Source text: as §1

hRPE-1 cells = test: Lysosome inhibition, MBd quantification in hRPE-1 cells; format: cell-based; conditions: lysosomal inhibition 22 hours
Source text: as §1

Compound: CCN(CC)CCCC(C)Nc1ccnc2cc(Cl)ccc12 (stereo not shown) [chloroquine]
- percent of MBd+ cells (MBd levels) (HeLa cells): modest increase; also recorded: increase the percent of MBd+ cells
- presence of MBds in lysosomes (HeLa cells): presence of MBds in lysosomes
- effect of treatment on the cells (differentiation, cell death) (hESCs (H1, H9)): caused differentiation and cell death
- percent of MBd+ cells (MBd levels) (MCF-7 cancer cells): largely unaffected; also recorded: no detectable effect
- percent of MBds in lysosomes (MCF-7 cancer cells): largely unaffected
- percent of MBds found within lysosomes (hRPE-1 cells; LAMP2 lysosome marker): elevated; also recorded: presence of MBds in lysosomes
- percent of MBd+ cells (MBd levels) (hRPE-1 cells; chloroquine 200 μM or E64d/PepA 10 μg/ml each): elevated; also recorded: increase the percent of MBd+ cells
